Assay type in all cases: cell-based
The target of experiment [1] is T1, BRAF D594G (Homo sapiens, UniProt P15056, D594G).
T1 construct: Horizon Discovery (HCT-116 BRAF−/− cells); host or cells: HCT-116 BRAF−/− cells, clone 63, lentiviral transduction
As to the kind of experiment: BRAF HiBiT degradation assay, C-terminal HiBiT-tagged BRAF D594G overexpressed in HCT-116 BRAF−/− cells (clone 63), Nano-Glo HiBiT Lytic assay. In short, it runs like this:
(§1)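 Degradation was read by Nano-Glo HiBiT lytic luminescence, normalised to DMSO-treated tagged cells with wildtype HCT-116 as background. Test cells were lentiviral clones of HCT-116 BRAF−/− carrying HiBiT-tagged mutants in RPMI/10% FBS, given compound at 0.01 nM–1 μM in duplicate. Outputs are the curve-fitted concentration giving 50% degradation and the maximal observed degradation.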

Experiment [2] deals with T2, BRAF G469A (Homo sapiens, UniProt P15056, G469A).
T2 construct: Horizon Discovery (HCT-116 BRAF−/− cells); host or cells: HCT-116 BRAF−/− cells, clone 34, lentiviral transduction
T2 sequence (P15056 whole entry G469A): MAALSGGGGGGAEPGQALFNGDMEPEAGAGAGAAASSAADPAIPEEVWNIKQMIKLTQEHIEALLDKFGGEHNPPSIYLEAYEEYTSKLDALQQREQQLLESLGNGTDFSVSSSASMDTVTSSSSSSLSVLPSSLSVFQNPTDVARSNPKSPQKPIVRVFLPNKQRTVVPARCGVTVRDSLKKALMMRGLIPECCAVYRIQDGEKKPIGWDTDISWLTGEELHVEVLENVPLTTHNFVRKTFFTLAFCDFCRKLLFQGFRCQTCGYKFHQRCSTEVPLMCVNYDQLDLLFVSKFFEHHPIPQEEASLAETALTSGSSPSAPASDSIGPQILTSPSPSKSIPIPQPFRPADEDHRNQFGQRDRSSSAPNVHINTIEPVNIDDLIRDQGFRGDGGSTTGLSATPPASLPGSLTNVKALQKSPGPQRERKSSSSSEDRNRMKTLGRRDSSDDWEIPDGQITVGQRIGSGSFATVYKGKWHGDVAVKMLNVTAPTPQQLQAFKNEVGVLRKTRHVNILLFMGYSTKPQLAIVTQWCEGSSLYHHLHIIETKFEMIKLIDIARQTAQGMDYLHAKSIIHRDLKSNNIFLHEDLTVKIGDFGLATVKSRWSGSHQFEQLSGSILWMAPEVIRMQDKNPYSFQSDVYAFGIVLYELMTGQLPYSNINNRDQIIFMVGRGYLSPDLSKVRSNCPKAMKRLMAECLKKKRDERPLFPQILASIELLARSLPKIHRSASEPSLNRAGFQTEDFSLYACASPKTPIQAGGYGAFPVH
As to the kind of experiment: BRAF HiBiT degradation assay, C-terminal HiBiT-tagged BRAF G469A overexpressed in HCT-116 BRAF−/− cells (clone 34), Nano-Glo HiBiT Lytic assay. Summed up: as §1

The target of experiment [3] is T3, BRAF G466V (Homo sapiens, UniProt P15056, G466V).
T3 construct: Horizon Discovery (HCT-116 BRAF−/− cells); host or cells: HCT-116 BRAF−/− cells, clone 8, lentiviral transduction
T3 sequence (P15056 whole entry G466V): as the sequence (P15056 whole entry G469A) above, with G466V, A469G counted along it
As to the kind of experiment: BRAF HiBiT degradation assay, C-terminal HiBiT-tagged BRAF G466V overexpressed in HCT-116 BRAF−/− cells (clone 8), Nano-Glo HiBiT Lytic assay. Summed up:
as §1

The target of experiment [4] is T4, BRAF V600E (Homo sapiens, UniProt P15056, V600E).
T4 construct: endogenous C-terminal HiBiT fusion tag on BRAF V600E allele; endogenous in cells; host or cells: A375 clone 1F10 (CRISPR-Cas9 knock-in of the HiBiT tag; parental A375 from ATCC)
T4 sequence (P15056 whole entry V600E, the tested form may be a part): as the sequence (P15056 whole entry G469A) above, with A469G, V600E counted along it
As to the kind of experiment: BRAF HiBiT degradation assay, C-terminal HiBiT-tagged BRAF V600E A375 cells (clone 1F10), Nano-Glo HiBiT Lytic assay. To be noted: for Dmax: A-375. In short, it runs like this: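 Luminescence from the Nano-Glo HiBiT lytic read-out gave % BRAF V600E remaining versus DMSO-treated tagged cells, with untagged A375 as background. Clone 1F10 cells (10,000/well, 24 h pre-culture) received compound at 1 μM–0.01 nM in half-log steps, 0.2% DMSO; curve fits gave DC50 at Y=50, plus observed Dmax.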

Where [5] appears, read: BRAF D594G (Class 3), HCT-116 BRAF−/− cells, DC50 at 50% degradation.
Where [6] appears, read: BRAF D594G (Class 3), HCT-116 BRAF−/− cells, observed Dmax relative to DMSO control.
[7] abbreviates: BRAF G469A (Class 2), HCT-116 BRAF−/− cells, DC50 at 50% degradation.
Where [8] appears, read: BRAF G469A (Class 2), HCT-116 BRAF−/− cells, observed Dmax relative to DMSO control.
Where [9] appears, read: BRAF G466V (Class 3), HCT-116 BRAF−/− cells, DC50 at 50% degradation.
The mark [10] stands for this setting: BRAF G466V (Class 3), HCT-116 BRAF−/− cells, observed Dmax relative to DMSO control.
Where [11] appears, read: A375 (BRAF V600E, Class 1), DC50 at 50% degradation.
Where [12] appears, read: A375 (BRAF V600E, Class 1), observed Dmax, % protein degraded relative to DMSO control.
Setting [13] is: BRAF D594G, DC50 at 50%: fitted conc. at Y=50.
[14] abbreviates: HCT-116, BRAF D594G, percentage protein degraded at maximal compound effect relative to DMSO.
The mark [15] stands for this setting: Class 2, BRAF G469A, DC50 at 50%: fitted conc. at Y=50.
Setting [16] is: HCT-116, Class 2, BRAF G469A, percentage protein degraded at maximal compound effect relative to DMSO.
The mark [17] stands for this setting: BRAF G466V, DC50 at 50%: fitted conc. at Y=50.
Where [18] appears, read: HCT-116, BRAF G466V, percentage protein degraded at maximal compound effect relative to DMSO.
Where [19] appears, read: A375 (BRAF V600E), DC50 at 50%: fitted conc. at Y=50.
The mark [20] stands for this setting: A375 (BRAF V600E), percentage protein degraded at maximal compound effect relative to DMSO.

Among the data in patent US20260317324A1, “BIFUNCTIONAL COMPOUNDS FOR DEGRADING BRAF VIA UBIQUITIN PROTEOSOME PATHWAY” (Nurix Therapeutics, Inc., priority 2023, published 2026) are DC50 and Dmax values, retold here.

T1 sequence (P15056 whole entry D594G): as the sequence (P15056 whole entry G469A) above, with A469G, D594G counted along it

Regarding `O=C1CCC(c2ccc(N3CCC(CN4CCN(c5ccc(-n6cc(-c7cc(Cl)cc(NS(=O)(=O)N8CCCC8)c7F)c(-c7ccncc7)n6)cn5)CC4)CC3)nc2)C(=O)N1` (racemic) [Compound 352, Rac-N-{5-chloro-3-[1-(6-{4-[(1-{5-[(3R)-2,6-dioxopiperidin-3-yl]pyridin-2-yl}piperidin-4-yl)methyl]piperazin-1-yl}pyridin-3-yl)-3-(pyridin-4-yl)-1H-pyrazol-4-yl]-2-fluorophenyl}pyrrolidine-1-sulfonamide], the DC50 in experiment [1] (setting [5]), in experiment [2] (setting [7]), in experiment [3] (setting [9]) and in experiment [4] (setting [11]) was < 10 nM in each case. The Dmax in experiment [1] (setting [6]) was 30 to 70%; in experiment [2] (setting [8]), > 70%; in experiment [3] (setting [10]), > 70%; in experiment [4] (setting [12]), > 70%.
On to `CCCS(=O)(=O)Nc1cccc(-c2nc(C3CCN(C4CN(C(=O)CC5CCN(c6ccc(C7CCC(=O)NC7=O)cc6)CC5)C4)CC3)sc2-c2ccnc(N)n2)c1F` (racemic) [Compound 215, Rac-N-{3-[5-(2-aminopyrimidin-4-yl)-2-(1-{1-[2-(1-{4-[(3R)-2,6-dioxopiperidin-3-yl]phenyl}piperidin-4-yl)acetyl]azetidin-3-yl}piperidin-4-yl)-1,3-thiazol-4-yl]-2-fluorophenyl}propane-1-sulfonamide], for which the DC50 in experiment [1] (setting [13]) is > 500 nM; in experiment [2] (setting [15]), > 500 nM; in experiment [3] (setting [17]), > 500 nM; in experiment [4] (setting [19]) it was 10 to 50 nM. For the same compound, the Dmax in experiment [1] (setting [14]) is < 30%; in experiment [2] (setting [16]), < 30%; in experiment [3] (setting [18]) it was < 30%; in experiment [4] (setting [20]), > 70%.
For `CCCS(=O)(=O)Nc1cccc(-c2nc(C3CCN(C(=O)C4CCN(C(=O)C5CCN(c6ccc(C7CCC(=O)NC7=O)cn6)CC5)CC4)CC3)sc2-c2ccnc(NC)n2)c1F` (racemic) [Compound 212, Rac-N-[3-(2-{1-[1-(1-{5-[(3R)-2,6-dioxopiperidin-3-yl]pyridin-2-yl}piperidine-4-carbonyl)piperidine-4-carbonyl]piperidin-4-yl}-5-[2-(methylamino)pyrimidin-4-yl]-1,3-thiazol-4-yl)-2-fluorophenyl]propane-1-sulfonamide], the DC50 in experiment [1] (setting [13]) was < 10 nM; in experiment [2] (setting [15]) it was 10 to 50 nM; in experiment [3] (setting [17]), < 10 nM; in experiment [4] (setting [19]), < 10 nM. For the same compound, the Dmax in experiment [1] (setting [14]) was 30 to 70%; in experiment [2] (setting [16]), 30 to 70%; in experiment [3] (setting [18]), 30 to 70%; in experiment [4] (setting [20]), > 70%.
Take `CCN(C)S(=O)(=O)Nc1cccc(-c2nc(C(C)(C)C)sc2-c2ccnc(Nc3ccc(N4CCN(C(=O)[C@H]5CC[C@H](CN6CCc7cc(C8CCC(=O)NC8=O)ccc7C6)CC5)CC4)cn3)n2)c1F` (mixture of isomers) [Compound 125, Rac-(3S)-3-(2-{[(1r,4r)-4-{4-[6-({4-[2-tert-butyl-4-(3-{[ethyl(methyl)sulfamoyl]amino}-2-fluorophenyl)-1,3-thiazol-5-yl]pyrimidin-2-yl}amino)pyridin-3-yl]piperazine-1-carbonyl}cyclohexyl]methyl}-1,2,3,4-tetrahydroisoquinolin-6-yl)piperidine-2,6-dione]: the DC50 in experiment [1] (setting [13]) was > 500 nM; in experiment [2] (setting [15]), > 500 nM; in experiment [3] (setting [17]) it was > 500 nM; in experiment [4] (setting [19]) it was 10 to 50 nM. Besides, the greatest degradation seen (Dmax) in experiment [1] (setting [14]) was < 30%; in experiment [2] (setting [16]), 30 to 70%; in experiment [3] (setting [18]) it was < 30%; in experiment [4] (setting [20]) it was > 70%.
Take `CCCS(=O)(=O)Nc1cccc(-c2nc(C3(C)CCN(C(=O)CN4CCC5(CC4)CN(c4ccc6c(c4)C(=O)N(C4CCC(=O)NC4=O)C6=O)C5)CC3)sc2-c2ccnc(N)n2)c1F` (racemic) [Compound 238, Rac-N-{3-[5-(2-aminopyrimidin-4-yl)-2-{1-[2-(2-{2-[(3R)-2,6-dioxopiperidin-3-yl]-1,3-dioxo-2,3-dihydro-1H-isoindol-5-yl}-2,7-diazaspiro[3.5]nonan-7-yl)acetyl]-4-methylpiperidin-4-yl}-1,3-thiazol-4-yl]-2-fluorophenyl}propane-1-sulfonamide]: the half-maximal degradation concentration (DC50) in experiment [1] (setting [13]) is < 10 nM; in experiment [2] (setting [15]) it was > 500 nM; in experiment [3] (setting [17]) it was 10 to 50 nM; in experiment [4] (setting [19]), < 10 nM. Further, the Dmax in experiment [1] (setting [14]) is 30 to 70%; in experiment [2] (setting [16]), 30 to 70%; in experiment [3] (setting [18]), 30 to 70%; in experiment [4] (setting [20]) it was > 70%.
Consider `CCN(C)S(=O)(=O)Nc1cccc(-c2nc(C)sc2-c2ccnc(Nc3ccc(N4CCN(C(=O)C5CCN(c6ccc(C7CCC(=O)NC7=O)cn6)CC5)CC4)cn3)n2)c1F` (racemic) [Compound 40, Rac-(3S)-3-[6-(4-{4-[6-({4-[4-(3-{[ethyl(methyl)sulfamoyl]amino}-2-fluorophenyl)-2-methyl-1,3-thiazol-5-yl]pyrimidin-2-yl}amino)pyridin-3-yl]piperazine-1-carbonyl}piperidin-1-yl)pyridin-3-yl]piperidine-2,6-dione], for which the DC50 in experiment [1] (setting [13]) was > 500 nM; in experiment [2] (setting [15]), 10 to 50 nM; in experiment [3] (setting [17]), > 500 nM; in experiment [4] (setting [19]) it was < 10 nM. For the same compound, the Dmax in experiment [1] (setting [14]) is 30 to 70%; in experiment [2] (setting [16]), 30 to 70%; in experiment [3] (setting [18]), 30 to 70%; in experiment [4] (setting [20]), > 70%.
Turning to `CCCS(=O)(=O)Nc1cccc(-c2nc(C(C)(C)C)sc2-c2ccnc(Nc3cccc(OC4CCN(C(=O)C[C@@H]5CCN(c6ccc(C7CCC(=O)NC7=O)cc6)C5)CC4)c3)n2)c1F` (mixture of isomers) [Compound 92, N-(3-{2-tert-butyl-5-[2-({3-[(1-{2-[(3S)-1-{4-[(3RS)-2,6-dioxopiperidin-3-yl]phenyl}pyrrolidin-3-yl]acetyl}piperidin-4-yl)oxy]phenyl}amino)pyrimidin-4-yl]-1,3-thiazol-4-yl}-2-fluorophenyl)propane-1-sulfonamide], the DC50 in experiment [1] (setting [13]), in experiment [2] (setting [15]), in experiment [3] (setting [17]) and in experiment [4] (setting [19]) was > 500 nM each time. Also, the Dmax is < 30% in experiment [1] (setting [14]), < 30% in experiment [2] (setting [16]), < 30% in experiment [3] (setting [18]) and 30 to 70% in experiment [4] (setting [20]).
As to `C[C@@H]1CN(c2ccc(-n3cc(-c4cc(Cl)cc(NS(=O)(=O)N5CCCC5)c4F)c(-c4ccncc4)n3)cc2)CCN1CC1CCN(c2ccc(N3CCC(=O)NC3=O)cc2)CC1` [Compound 319, N-[5-chloro-3-(1-{4-[(3R)-4-({1-[4-(2,4-dioxo-1,3-diazinan-1-yl)phenyl]piperidin-4-yl}methyl)-3-methylpiperazin-1-yl]phenyl}-3-(pyridin-4-yl)-1H-pyrazol-4-yl)-2-fluorophenyl]pyrrolidine-1-sulfonamide], the DC50 in experiment [1] (setting [5]) is < 10 nM; in experiment [2] (setting [7]), 50 to 500 nM; in experiment [3] (setting [9]) it was < 10 nM; in experiment [4] (setting [11]), < 10 nM. Moreover, the Dmax in experiment [1] (setting [6]) is 30 to 70%; in experiment [2] (setting [8]) it was 30 to 70%; in experiment [3] (setting [10]), > 70%; in experiment [4] (setting [12]) it was > 70%.
`O=C1CC[C@H](c2ccc(N3CCC(CN4CCN(c5ccc(-n6cc(-c7cc(Cl)cc(NS(=O)(=O)N8CCCC8)c7F)c(-c7ccncc7)n6)nc5)CC4)CC3)nc2)C(=O)N1` [Compound 290, N-{5-chloro-3-[1-(5-{4-[(1-{5-[(3R)-2,6-dioxopiperidin-3-yl]pyridin-2-yl}piperidin-4-yl)methyl]piperazin-1-yl}pyridin-2-yl)-3-(pyridin-4-yl)-1H-pyrazol-4-yl]-2-fluorophenyl}pyrrolidine-1-sulfonamide]: the DC50 in experiment [1] (setting [5]), in experiment [2] (setting [7]), in experiment [3] (setting [9]) and in experiment [4] (setting [11]) was < 10 nM each time. Also, the Dmax in experiment [1] (setting [6]), in experiment [2] (setting [8]), in experiment [3] (setting [10]) and in experiment [4] (setting [12]) was > 70% each time.
